Test results from patent publication US20100234395A1, “UREIDE DERIVATIVE AND PHARMACEUTICAL APPLICATION THEREOF” (TORAY INDUSTRIES, INC., priority 2006, published 2010).
Where two headings read alike, the source gives them in different places.

Key:
[1] = target: T1, COX-1 (Homo sapiens, UniProt P23219); experiment: Activity of inhibiting COX-1 in human blood (thromboxane B2 after ionomycin); format: cell-based; settings: thromboxane B2 production
T1 construct: Human blood that had been sampled with the use of heparin (19 units/ml) was used; from tissue; host or cells: human whole blood (heparinised)
T1 sequence (P23219 24-599): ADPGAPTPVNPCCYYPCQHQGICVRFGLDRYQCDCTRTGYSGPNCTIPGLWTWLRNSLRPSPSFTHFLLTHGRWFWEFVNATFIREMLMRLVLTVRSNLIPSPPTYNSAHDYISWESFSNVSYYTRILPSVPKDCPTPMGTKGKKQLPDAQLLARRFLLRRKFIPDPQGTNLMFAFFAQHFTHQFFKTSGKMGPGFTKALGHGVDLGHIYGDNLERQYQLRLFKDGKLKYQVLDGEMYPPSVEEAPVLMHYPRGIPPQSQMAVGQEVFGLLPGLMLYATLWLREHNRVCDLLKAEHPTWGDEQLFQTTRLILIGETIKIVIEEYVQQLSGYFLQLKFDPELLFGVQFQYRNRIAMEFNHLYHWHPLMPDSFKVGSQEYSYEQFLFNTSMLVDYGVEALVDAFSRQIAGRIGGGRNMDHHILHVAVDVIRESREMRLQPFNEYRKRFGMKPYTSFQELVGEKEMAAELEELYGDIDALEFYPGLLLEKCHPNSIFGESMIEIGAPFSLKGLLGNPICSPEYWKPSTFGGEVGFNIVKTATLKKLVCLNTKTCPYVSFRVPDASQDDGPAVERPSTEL
Description: Human blood that had been sampled with the use of heparin (19 units/ml) was used. Blood was fractionated to reaction tubes in amounts of 500 μl, the test compound or solvent was added thereto, and the resultants were incubated at 37° C. for 60 minutes. Dimethyl sulfoxide (DMSO) was used as a solvent for the test compound. Thereafter, ionomycin (30 nM) was added, and the reaction was allowed to proceed for 30 minutes. After the completion of the reaction, the supernatant (blood plasma) was recovered via centrifugation at 4° C., and the amount of thromboxane B2 in the plasma was quantified using a kit (519031, Cayman Chemical). The amount of thromboxane B2 produced via the addition of ionomycin was designated as 100%, and the concentration of the test compound that inhibits 50% of such reaction was represented by the IC50 value.

[2] = target: T2, COX-2 (Homo sapiens, UniProt P35354); experiment: Activity of inhibiting COX-2 in human blood (prostaglandin E2 after lipopolysaccharide); format: cell-based; settings: prostaglandin E2 production
T2 construct: Human blood that had been sampled with the use of heparin (19 units/ml) was used; from tissue; host or cells: human whole blood (heparinised), aspirin-pretreated, stimulated with lipopolysaccharide
T2 sequence (P35354 18-604): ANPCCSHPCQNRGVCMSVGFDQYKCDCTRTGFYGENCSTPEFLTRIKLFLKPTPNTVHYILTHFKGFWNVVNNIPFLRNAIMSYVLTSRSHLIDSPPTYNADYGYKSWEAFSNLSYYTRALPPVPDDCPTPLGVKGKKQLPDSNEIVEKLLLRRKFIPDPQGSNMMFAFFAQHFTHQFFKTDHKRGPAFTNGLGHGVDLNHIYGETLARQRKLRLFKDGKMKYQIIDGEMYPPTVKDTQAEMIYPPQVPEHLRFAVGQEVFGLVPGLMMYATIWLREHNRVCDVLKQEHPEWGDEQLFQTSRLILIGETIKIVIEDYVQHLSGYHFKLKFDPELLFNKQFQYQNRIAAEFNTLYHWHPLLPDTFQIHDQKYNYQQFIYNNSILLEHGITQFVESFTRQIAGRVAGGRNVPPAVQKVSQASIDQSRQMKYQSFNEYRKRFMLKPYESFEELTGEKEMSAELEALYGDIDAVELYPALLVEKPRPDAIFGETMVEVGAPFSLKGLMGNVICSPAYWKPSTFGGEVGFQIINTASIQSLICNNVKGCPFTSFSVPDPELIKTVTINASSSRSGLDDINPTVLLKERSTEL
Description: Human blood that had been sampled with the use of heparin (19 units/ml) was used. Blood was fractionated to reaction tubes in amounts of 500 μl, aspirin (12 μg/ml) was added thereto, and the resultants were incubated at 37° C. for 6 hours. Thereafter, the test compound or solvent, and lipopolysaccharide (10 μg/ml) were added, and the reaction was allowed to proceed for 18 hours. After the completion of the reaction, the supernatant (blood plasma) was recovered via centrifugation at 4° C., and the amount of prostaglandin E2 in the plasma was quantified using a kit (514010, Cayman Chemical). Dimethyl sulfoxide (DMSO) was used as a solvent for the test compound. The amount of prostaglandin E2 produced via the addition of lipopolysaccharide was designated as 100%, and the concentration of the test compound that inhibits 50% of such reaction was represented by the IC50 value.

[3] = test system: ddY mice; experiment: Acetic acid writhing test in mice (analgesic effects); format: in vivo; settings: Mus musculus
Description: ddY mice were grown for at least 16 hours under fasting conditions while free water intake was allowed, and a solution of the test compound or a solvent was orally administered thereto (0.1 ml/10 g). As a solvent for a solution of the test compound, dimethyl sulfoxide (DMSO):Tween 80:27% hydroxypropyl-P-cyclodextrin (hereafter abbreviated to “HP-β-CD”) (1:1:8) or 27% HP-β-CD was used. A solution of 0.6% acetic acid (0.1 ml/10 g) was administered intraperitoneally 45 minutes after administration to induce a writhing reaction (i.e., a movement of stretching or arching the body). The number of the writhing reactions that had occurred for the period from 10 minutes after administration of the acetic acid solution to 10 minutes thereafter was counted, and the number of times was designated as an indicator of pain. The number of times of reactions in the group to which a solvent had been administered was designated as 100%, and the concentration of the test compound that had inhibited 50% of such reaction was designated as the ED50 value.
The compound of Reference Example 78 is disclosed in the claims of JP Patent Publication (kohyo) No. 2006-517535 A, the compounds of Reference Examples 93 and 199 are disclosed in the claims of JP Patent No. 3003148, and the compound of Reference Example 103 is disclosed in the claims of JP Patent Publication (kohyo) No. 2006-514095 A. Thus, these compounds were compared with the compounds of the present invention having similar structures in terms of analgesic effects with oral administration (Table 4) or subcutaneous administration (Table 5). Dimethyl sulfoxide (DMSO):Tween 80:27% HP-β-CD (1:1:8) or 27% HP-β-CD was used as a solvent for the test compound.

[4] = sc, Table 5, subcutaneous administration, read-out: ED50 (mg/kg) [90% confidence limit]
[5] = oral administration 45 minutes before 0.6% acetic acid i.p., 50% inhibition of writhing reactions, read-out: ED50 (mg/kg)[90% confidence limit]

COc1ccc(-c2nc(C3CCN(C(=O)N(O)C(C)C)CC3)oc2-c2ccc(OC)cc2)cc1 [Example 15, 4-(4,5-Bis(4-methoxyphenyl)oxazol-2-yl)-1-(N-isopropyl-N-hydroxycarbamoyl)piperidine] gave an IC50 [1] of under 0.1 µM and an IC50 [2] of over 10 µM.

COc1ccc(-c2nc(C3CCNCC3)sc2-c2ccc(OC)cc2)cc1 [Reference Example 93, 4-(4,5-Bis(4-methoxyphenyl)thiazol-2-yl)piperidine, reference compound] was tested, and the ED50 [3, 4] was over 100 mg/kg.

For CNC(=O)N1CCC(c2nc(-c3ccc(OC)cc3)c(-c3ccc(OC)cc3)s2)CC1 [Reference Example1 199, reference compound], the ED50 [3, 4] was 34.4 mg/kg.

COc1ccc(-n2nc(C3CCN(C(=O)N(C)O)CC3)cc2-c2cccnc2OC)cc1 [Example 67, 4-(1-(4-Methoxyphenyl)-5-(2-methoxypyridin-3-yl)-1H-pyrazol-3-yl)-1-(N-hydroxy-N-methylcarbamoyl)piperidine] showed an ED50 [3, 5] of 2.51 mg/kg.

CCCC1(c2nc(-c3ccc(OC)cc3)c(-c3ccc(OC)cc3)o2)CCN(C(=O)N(C)O)CC1 [Example 74, 4-(1,5-Bis(4-methoxyphenyl)oxazol-2-yl)-4-propyl-1-(N-hydroxy-N-methylcarbamoyl)piperidine] showed an IC50 [1] of under 0.1 µM and an IC50 [2] of over 10 µM.

In the case of COc1ccc(-c2cc(C3CCN(C(=O)N(C)O)CC3)[nH]c2-c2ccc(OC)cc2)cc1 [Example 34, 4-(4,5-Bis(4-methoxyphenyl)-1H-pyrrol-2-yl)-1-(N-hydroxy-N-methylcarbamoyl)piperidine], the IC50 [1] is reported as under 0.1 µM and the IC50 [2] is reported as over 10 µM.

Compound COc1ccc(-n2nc(C3CCN(C(=O)N(C)O)CC3)cc2-c2ccc(C)cc2)cc1 [Example 69, 4-(1-(4-Methoxyphenyl)-5-(4-tolyl)-1H-pyrazol-3-yl)-1-(N-hydroxy-N-methylcarbamoyl)piperidine] has an IC50 [1] of under 0.1 µM, an ED50 [3, 5] of 3.19 mg/kg and an IC50 [2] of over 10 µM.

In the case of COc1ccc(-c2oc(C3CCN(C(=O)N(C)O)CC3)nc2-c2ccc(Cl)cc2)cc1 [Example 12, 4-(4-(4-Chlorophenyl)-5-(4-methoxyphenyl)oxazol-2-yl)-1-(N-hydroxy-N-methylcarbamoyl)-piperidine], the IC50 [1] is reported as under 0.1 µM, the ED50 [3, 5] is reported as 2.29 mg/kg and the IC50 [2] is reported as over 10 µM.

COc1ccc(-c2cc(C3CCN(C(=O)N(C)O)CC3)oc2-c2ccc(OC)cc2)cc1 [Example 38, 4-(4,5-bis(4-methoxyphenyl)furan-2-yl)-1-(N-hydroxy-N-methylcarbamoyl)piperidine] was tested, and the IC50 [1] was under 0.1 µM and the IC50 [2] was over 10 µM.

In the case of COc1ccc(-c2nc(C3(c4ccccc4)CCN(C(=O)N(C)O)CC3)oc2-c2ccc(OC)cc2)cc1 [Example 48, 4-(4,5-Bis(4-methoxyphenyl)oxazol-2-yl)-(N-hydroxy-N-methylcarbamoyl)-4-phenylpiperidine], the IC50 [1] is reported as under 0.1 µM and the IC50 [2] is reported as over 10 µM.

For COc1ccc(-c2nc(C3CCN(C(=O)N(C)OC)CC3)oc2-c2ccc(OC)cc2)cc1 [Example 24, 4-(4,5-Bis(4-methoxyphenyl)oxazol-2-yl)-1-(N-methoxy-N-methylcarbamoyl)piperidine], the IC50 [1] was under 0.1 µM and the IC50 [2] was over 10 µM.

COc1ccc(-c2nc(N3CCN(C(=O)N(C)O)CC3)sc2-c2ccc(OC)cc2)cc1 [Example 57, 4-(4,5-Bis(4-methoxyphenyl)thiazol-2-yl)-1-(N-hydroxy-N-methylcarbamoyl)piperazine] gave an ED50 [3, 5] of 9.79 mg/kg.

Work on COc1ccc(-c2nc(C3CCN(C(=O)N(O)C4CCCCC4)CC3)oc2-c2ccc(OC)cc2)cc1 [Example 16, 4-(4,5-Bis(4-methoxyphenyl)oxazol-2-yl)-1-(N-cyclohexyl-N-hydroxycarbamoyl)piperidine] yielded an IC50 [1] of under 0.1 µM and an IC50 [2] of over 10 µM.

In the case of COc1ccc(-c2nc(C3(C)CCN(C(=O)N(C)O)CC3)oc2-c2ccc(OC)cc2)cc1 [Example 42, 4-(4,5-Bis(4-methoxyphenyl)oxazol-2-yl)-1-(N-hydroxy-N-methylcarbamoyl)-4-methylpiperidine], the IC50 [1] is reported as under 0.1 µM and the IC50 [2] is reported as over 10 µM.

COc1ccc(-c2cc(C3CCN(C(=O)N(C)O)CC3)sc2-c2ccc(OC)cc2)cc1 [Example 39, 4-(4,5-Bis(4-methoxyphenyl)thiophen-2-yl)-1-(N-hydroxy-N-methylcarbamoyl)piperidine] gave an IC50 [1] of under 0.1 µM and an IC50 [2] of over 10 µM.

COc1ccc(-c2cc(C3CCNCC3)nn2-c2ccc(OC)cc2)cc1 [Reference Example 103, 4-(1,5-Bis(4-methoxyphenyl)-1H-pyrazol-3-yl)piperidine, reference compound] showed an ED50 [3, 4] of over 100 mg/kg.

CN(O)C(=O)N1CCC(c2nc(-c3ccc(F)cc3)c(-c3ccccc3)o2)CC1 [Example 13, 4-(4-(4-Fluorophenyl)-5-phenyloxazol-2-yl)-1-(N-hydroxy-N-methylcarbamoyl)piperidine] showed an ED50 [3, 5] of 2.62 mg/kg.

Work on COc1ccc(-c2nc(C3CCNCC3)oc2-c2ccc(OC)cc2)cc1 [Reference Example 78, 4-(4,5-Bis(4-methoxyphenyl)oxazol-2-yl)piperidine, reference compound] yielded an ED50 ([3]; Table 4, oral administration, comparison with similar known compound, read-out: ED50 (mg/kg) [90% confidence limit]) of over 100 mg/kg.

For COc1ccc(-c2nc(C3CCN(C(=O)N(C)OC)CC3)sc2-c2ccc(OC)cc2)cc1 [Example 61, 4-(4,5-Bis(4-methoxyphenyl)thiazol-2-yl)-1-(N-methoxy-N-methylcarbamoyl)piperidine], the IC50 [1] was under 0.1 µM and the IC50 [2] was over 10 µM.

Work on COc1ccc(-c2nc(C3CCN(C(=O)N(C)O)CC3)oc2-c2ccc(OCCO)cc2)cc1 [Example 77] yielded an IC50 [1] of under 0.1 µM and an IC50 [2] of over 10 µM.

For COc1ccc(-c2nc(C3(C)CCN(C(=O)N(C)O)CC3)sc2-c2ccc(OC)cc2)cc1 [Example 55, 4-(4,5-Bis(4-methoxyphenyl)thiazol-2-yl)-1-(N-hydroxy-N-methylcarbamoyl)-4-methylpiperidine], the IC50 [1] was under 0.1 µM and the IC50 [2] was over 10 µM.

For COc1ccc(-c2cc(C3CC4CCC(C3)N4C(=O)N(C)O)nn2-c2ccc(OC)cc2)cc1 (stereo not shown) [Example 68, 3-(1,5-Bis(4-methoxyphenyl)-1H-pyrazol-3-yl)-8-(N-hydroxy-N-methylcarbamoyl)-8-azabicyclo[3.2.1]octane], the IC50 [1] was under 0.1 µM and the IC50 [2] was over 10 µM.

With CCN(O)C(=O)N1CCC(c2nc(-c3ccc(OC)cc3)c(-c3ccc(OC)cc3)o2)CC1 [Example 19, 4-(4,5-Bis(4-methoxyphenyl)oxazol-2-yl)-1-(N-hydroxy-N-ethylcarbamoyl)piperidine] the IC50 [1] was under 0.1 µM and the IC50 [2] was over 10 µM.

Work on COc1ccc(-c2nc(C3CCN(C(=O)N(O)C(C)C)CC3)sc2-c2ccc(OC)cc2)cc1 [Example 60, 4-(4,5-Bis(4-methoxyphenyl)thiazol-2-yl)-1-(N-hydroxy-N-isopropylcarbamoyl)piperidine] yielded an IC50 [1] of under 0.1 µM and an IC50 [2] of over 10 µM.
